Source: patent US11472791B2 (Incyte Corporation, priority 2019, dated 2022)

How the values were obtained:
[1] = test system: Rb phosphorylation at S780 in CCNE1-amplified cell lines (OVCAR3 and COV318); experiment: Western blot of Rb phosphorylation at S780, CCNE1-amplified cell lines; format: cell-based, human; conditions: OVCAR3 and COV318, various doses, 1 or 15 hours; listed as Palbociclib
Method: (§1) The effect of CDK4/6-inhibition on Rb phosphorylation at S780 in CCNE1-amplified versus CCNE1-non-amplified cell lines was evaluated. […] One or 15 hours after treatment, the cells were harvested and total protein was extracted and analyzed by western blot (FIG. 8).
(§2) Whole cell extracts were prepared using RIPA buffer (Thermo Scientific, 89900) with a Halt Protease and Phosphatase Inhibitor Cocktail (Thermo Scientific, 78440). Protein concentration was quantified with a BCA Protein Assay Kit (Thermo Scientific, 23225) and 40 μg of protein lysates were loaded for SDS-PAGE using precast gradient gels (Bio-Rad, Hercules, No. 456-1094). Samples were diluted in 5× Laemmli buffer (300 mM Tris-HCl pH 6.8, 10% SDS (w/v), 5% 2-mercaptoethanol, 25% glycerol (v/v), 0.1% bromophenol blue w/v) and boiled for 5 minutes. 35 μg of proteins were separated by 8-15% SDS-PAGE and transferred onto polyvinylidene fluoride (PVDF) membranes. Unspecific binding sites on the PVDF membranes were blocked with 5% non-fat milk in TEST (20 mM Tris-HCl, pH 7.6, 137 mM NaCl, 1% Tween-20). […] Images were captured by Luminescence/Fluorescence Imaging System Odyssey CLx Imager (LI-COR).

[2] = test system: CCNE1-amplified cell lines (COV318 and OVCAR3); experiment: Cell cycle analysis by FACS, CCNE1-amplified cell lines; format: cell-based, human; conditions: for inhibition of proliferation: CCNE1-amplified OVCAR3 cells, 16 hours, increasing concentrations, vs DMSO
Method: (§3) The effect of CDK4/6-inhibition in CCNE1-amplified versus CCNE1-non-amplified cell lines was evaluated.
(§4) A similar experiment was performed in a larger set of CCNE1-amplified cell lines (COV318 and OVCAR3) and CCNE1-non-amplified cell lines (COV504, OV56, and Igrov1) (FIG. 6).
(§5) Bulk DNA was stained with DAPI. Compound-treated and DMSO treated control cells were acquired with CytoFlex (Beckman Coulter) and were analyzed using the FlowJo software. For cell cycle analysis of cells with siRNA knockdown, 72 hours after siRNA transfection, cells exposed to 10 μM EdU for 3 hours before detection of Click-iT Alexa Fluor® 647 azide kit.

[3] = test system: Rb phosphorylated on serine 780 in CCNE1 amplified COV318 cells; experiment: CDK2 pRb (S780) HTRF cellular assay; format: cell-based; conditions: Homo sapiens, read-out: IC50 in p-RB S780 HTRF cellular assay
[4] = test system: Rb phosphorylation at S780 in CCNE1-non-amplified cell lines (COV504 and OV56); experiment: Western blot of Rb phosphorylation at S780, CCNE1-non-amplified cell lines; format: cell-based, human; conditions: COV504 and OV56, various doses, 1 or 15 hours
Method: as §1, §2

[5] = test system: CCNE1-non-amplified cell lines (COV504, OV56, and Igrov1); experiment: Cell cycle analysis by FACS, CCNE1-non-amplified cell lines; format: cell-based, human; conditions: for inhibition of proliferation: CCNE1-non-amplified COV504 cells, 16 hours, increasing concentrations, vs DMSO; for percentage of cells at the S phase: COV504, OV56, Igrov1, 16 hours after treatment, compared to DMSO
Method: as §3, §4, §5

## CC(=O)c1c(C)c2cnc(Nc3ccc(N4CCNCC4)cn3)nc2n(C2CCCC2)c1=O [palbociclib]
[1]
  Rb phosphorylation at S780: not in amplified ovarian cells
[2]
  inhibition of proliferation: not in CCNE1-amplified cells
[2]; listed as Palbociclib
  inhibition of proliferation: not in amplified cell lines
[2]; COV318 and OVCAR3, 16 hours after treatment, compared to DMSO
  percentage of cells at the S phase: not significantly different
[3]
  IC50: > 3000 nM
[4]
  Rb phosphorylation at S780: blocked Rb phosphorylation at S780
[4]; listed as Palbociclib
  Rb phosphorylation at S780: blocks RB phosphorylation at S780
[5]
  inhibition of proliferation: dose-dependent inhibition of the proliferation
  percentage of cells at the S phase: decreased in CCNE1-non-amplified cell lines in a dose-dependent fashion
[5]; listed as Palbociclib
  inhibition of proliferation: dose-dependent inhibition of proliferation
  percentage of cells at the S phase: selectively inhibits proliferation
